Assays:
[1] = target: human CB-1 cannabinoid receptor (Homo sapiens (Human), UniProt P21554); assay: CB-1 receptor radioligand binding assay ([3H]CP 55940, transfected CHO cell membranes); conditions: 0.5 nM [3H]CP 55940, 120 min at 37° C., agonist site
Experimental: Nonspecific binding is determined in the presence of 10 μM WIN 55212-2.
Following incubation, the samples are filtered rapidly under vacuum through glass fiber filters (GF/B, Packard) presoaked with 0.3% PEI and rinsed several times with an ice-cold buffer containing 50 mM Tris-HCl (pH 7.4) and 0.5% BSA using a 96-sample cell harvester (Unifilter, Packard). The filters are dried then counted for radioactivity in a scintillation counter (Topcount, Packard) using a scintillation cocktail (Microscint O, Packard).
The standard reference compound is CP 55940 which is tested in each experiment at several concentrations to obtain a competition curve from which its IC50 is calculated.
In Table 5, blank entries for Ki indicate that the observed binding was too weak to measure a Ki value.

human CB1 receptor = human CB1 receptor (Homo sapiens (Human), UniProt P21554); assay: CB1 receptor antagonism, agonist-induced cAMP modulation (HTRF) in transfected CHO cells; type: cell-based; conditions: inhibition of control response to 3 nM CP 55940, cAMP HTRF, read-out: Antag IC50
Chain of human CB1 receptor (P21554 whole entry): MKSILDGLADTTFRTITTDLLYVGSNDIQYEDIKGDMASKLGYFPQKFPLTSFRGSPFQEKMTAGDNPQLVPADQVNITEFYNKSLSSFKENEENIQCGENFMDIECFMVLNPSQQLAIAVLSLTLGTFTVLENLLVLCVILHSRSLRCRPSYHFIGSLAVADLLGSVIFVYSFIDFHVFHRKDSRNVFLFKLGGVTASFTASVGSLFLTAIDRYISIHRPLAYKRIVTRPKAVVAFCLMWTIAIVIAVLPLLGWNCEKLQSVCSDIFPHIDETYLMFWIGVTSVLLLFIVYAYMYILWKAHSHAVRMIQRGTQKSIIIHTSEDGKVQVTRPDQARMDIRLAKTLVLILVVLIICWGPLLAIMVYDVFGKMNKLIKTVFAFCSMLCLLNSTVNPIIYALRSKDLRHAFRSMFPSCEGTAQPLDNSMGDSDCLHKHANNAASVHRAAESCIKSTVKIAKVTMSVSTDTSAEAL
Experimental: Receptor antagonism: Evaluation of the antagonist activity of compounds at the human CB1 receptor expressed in transfected CHO cells, determined by measuring their effects on agonist-induced cAMP modulation using the HTRF detection method.
The cells are suspended in HBSS buffer (Invitrogen) complemented with 20 mM HEPES (pH 7.4), then distributed in microplates at a density of 5.10^3 cells/well and preincubated for 5 min at room temperature in the presence of either of the following: HBSS (stimulated control), the reference antagonist AM 281 at 3 μM (basal control) or various concentrations (IC50 determination), or the test compounds.
Thereafter, the reference agonist CP 55940 and the adenylyl cyclase activator NKH 477 are added at respective final concentrations of 3 nM and 3 μM.
For basal control measurements, CP 55940 is omitted from the wells containing 3 μM AM 281.
Following 20 min incubation at 37° C., the cells are lysed and the fluorescence acceptor (D2-labeled cAMP) and fluorescence donor (anti-cAMP antibody labeled with europium cryptate) are added.
After 60 min at room temperature, the fluorescence transfer is measured at λex=337 nm and λem=620 and 665 nm using a microplate reader (Rubystar, BMG). The cAMP concentration is determined by dividing the signal measured at 665 nm by that measured at 620 nm (ratio).
The results are expressed as a percent inhibition of the control response to 3 nM CP 55940.
The standard reference antagonist is AM 281, which is tested in each experiment at several concentrations to generate a concentration-response curve from which its IC50 value is calculated.

[2] = target: human adenosine A2A receptor (Homo sapiens (Human), UniProt P29274); assay: Adenosine receptor binding assay, A2A ([3H]ZM241385 inhibition binding on HEK293 membranes); conditions: 1 nM [3H]ZM241385, 25° C., 1 h, Ki from IC50 by Cheng-Prusoff
Chain of human adenosine A2A receptor (P29274 whole entry): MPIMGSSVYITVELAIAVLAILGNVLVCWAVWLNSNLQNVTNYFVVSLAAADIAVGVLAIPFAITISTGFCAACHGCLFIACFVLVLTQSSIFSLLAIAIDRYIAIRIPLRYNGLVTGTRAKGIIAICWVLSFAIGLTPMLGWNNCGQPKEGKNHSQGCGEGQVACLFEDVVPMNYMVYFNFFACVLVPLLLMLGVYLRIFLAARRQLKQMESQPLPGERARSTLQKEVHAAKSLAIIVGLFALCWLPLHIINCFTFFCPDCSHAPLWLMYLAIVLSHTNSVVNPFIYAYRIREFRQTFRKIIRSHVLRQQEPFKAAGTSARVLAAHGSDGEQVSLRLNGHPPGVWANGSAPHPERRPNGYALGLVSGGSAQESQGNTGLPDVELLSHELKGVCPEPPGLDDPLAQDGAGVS
Experimental: (§1) Inhibition binding assays were performed using 0.2 μg of membranes prepared from HEK293 cells infected with BacMam human adenosine A2A receptor or 1.4 μg of membranes prepared from HEK293 cells infected with BacMam human adenosine A1 receptor. Membranes were incubated in 50 mM Tris-HCl (HEK293-hA2A; pH 7.4) or 50 mM Tris-HCl, 100 mM NaCl, 10 mM MgCl2 (CHO-hA1; pH 7.4) in the presence of varying concentrations of test compound and 1 nM [^3H]ZM241385 (HEK293-hA2A) or [^3H]DPCPX (CHO-hA1) at 25° C. for 1 h. The assay was then terminated by rapid filtration onto GF/B grade Unifilter plates using a TomTec cell harvester, followed by 5×0.5 ml washes with ddH2O. Nonspecific binding was defined in the presence of 1 μM CGS15943 (HEK293-hA2A) or 1 μM DPCPX (CHO-hA1). Bound radioactivity was determined by liquid scintillation counting and inhibition curves were analysed using a four-parameter logistic equation. IC50 values were converted to Ki values with the Cheng-Prusoff equation using a KD value derived from saturation binding studies.

[3] = target: human adenosine A1 receptor (Homo sapiens (Human), UniProt P30542); assay: Adenosine receptor binding assay, A1 ([3H]DPCPX inhibition binding on membranes); conditions: 1 nM [3H]DPCPX, 25° C., 1 h, Ki from IC50 by Cheng-Prusoff
Chain of human adenosine A1 receptor (P30542 whole entry): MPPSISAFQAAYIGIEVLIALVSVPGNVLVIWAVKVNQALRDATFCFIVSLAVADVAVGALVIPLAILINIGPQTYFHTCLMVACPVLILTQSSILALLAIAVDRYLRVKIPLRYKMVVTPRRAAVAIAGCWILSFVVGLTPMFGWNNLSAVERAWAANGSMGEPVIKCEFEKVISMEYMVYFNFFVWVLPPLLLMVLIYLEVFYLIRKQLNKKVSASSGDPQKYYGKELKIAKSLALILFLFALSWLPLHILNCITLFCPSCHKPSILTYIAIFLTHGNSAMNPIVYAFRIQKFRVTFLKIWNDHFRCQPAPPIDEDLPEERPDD
Experimental: as §1

Chain of human CB-1 cannabinoid receptor (P21554 whole entry): as the sequence (P21554 whole entry) above

In the case of `Cc1ocnc1Cn1nc2c(-c3cc(C)c4[nH]ncc4c3)c(-c3ccccc3)nc(N)n2c1=O` [Example 4-9, 5-amino-8-(7-methyl-1H-indazol-5-yl)-2-[(5-methyloxazol-4-yl)methyl]-7-phenyl-[1,2,4]triazolo[4,3-c]pyrimidin-3-one], the Ki [1] is reported as 39.1 µM, the IC50 (human CB1 receptor) is reported as 15.5 µM and the “A2A pKi” value [2] is reported as 10.1. The “A1 pKi” value [3] was 8.8.
`C[C@@H]1CC(c2c(-c3ccccc3)nc(N)n3c(=O)n(CCC(F)(F)F)nc23)=C[C@H](C)O1` (relative stereo) [Example 2-1, 5-amino-8-[(cis)-2,6-dimethyl-3,6-dihydro-2H-pyran-4-yl]-7-phenyl-2-(3,3,3-trifluoropropyl)-[1,2,4]triazolo[4,3-c]pyrimidin-3-one] was tested, and the Ki [1] was 31.5 µM, the IC50 (human CB1 receptor) was 72.2 µM and the “A2A pKi” value [2] was 8.6. The “A1 pKi” value [3] was 6.3.
With `Cc1ocnc1Cn1nc2c(-c3cc(C)c4[nH]ccc4c3)c(-c3ccccc3)nc(N)n2c1=O` [Example 4-12, 5-amino-8-(7-methyl-1H-indol-5-yl)-2-[(5-methyloxazol-4-yl)methyl]-7-phenyl-[1,2,4]triazolo[4,3-c]pyrimidin-3-one] the Ki [1] was 39.6 µM, the IC50 (human CB1 receptor) was 22.5 µM and the “A2A pKi” value [2] was 9.3. The “A1 pKi” value [3] was 7.2.
With `C[C@@H]1CN(c2c(-c3ccccc3)nc(N)n3c(=O)n(CCC(F)(F)F)nc23)C[C@H](C)O1` [Example 1-1, 5-amino-8-[(cis)-2,6-dimethylmorpholin-4-yl]-7-phenyl-2-(3,3,3-trifluoropropyl)-[1,2,4]triazolo[4,3-c]pyrimidin-3-one] the Ki [1] was 33.9 µM, the IC50 (human CB1 receptor) was 14.7 µM and the “A2A pKi” value [2] was 8.3. For the same compound, the “A1 pKi” value [3] was <5.4.
`Cc1cc(-c2c(-c3ccccc3)nc(N)n3c(=O)n(Cc4ccc(F)cn4)nc23)cc2cn[nH]c12` [Example 4-4, 5-amino-2-[(5-fluoro-2-pyridyl)methyl]-8-(7-methyl-1H-indazol-5-yl)-7-phenyl-[1,2,4]triazolo[4,3-c]pyrimidin-3-one] was tested, and the Ki [1] was 5.5 µM, the IC50 (human CB1 receptor) was 1.3 µM and the Ki ([2]; read-out: A2A pKi (converted)) was 0.000251 µM. It also gave a Ki ([3]; read-out: A1 pKi (converted)) of 0.0251 µM.
In the case of `Cc1cc(-c2c(-c3ccc(F)cc3)nc(N)n3c(=O)n(CCC(F)(F)F)nc23)cc2ocnc12` [Example 4-1, 5-amino-7-(4-fluorophenyl)-8-(4-methyl-1,3-benzoxazol-6-yl)-2-(3,3,3-trifluoropropyl)-[1,2,4]triazolo[4,3-c]pyrimidin-3-one], the Ki [1] is reported as 3.7 µM, the IC50 (human CB1 receptor) is reported as 2.4 µM and the “A2A pKi” value [2] is reported as 9.3. For the same compound, the “A1 pKi” value [3] was 6.5.
In the case of `Cc1cc(-c2c(-c3ccccc3)nc(N)n3c(=O)n(Cc4ccc(F)cn4)nc23)cc2nc[nH]c12` [Example 4-5, 5-amino-2-[(5-fluoro-2-pyridyl)methyl]-8-(7-methyl-1H-benzimidazol-5-yl)-7-phenyl-[1,2,4]triazolo[4,3-c]pyrimidin-3-one], the Ki [1] is reported as 24.4 µM, the IC50 (human CB1 receptor) is reported as 68.6 µM and the “A2A pKi” value [2] is reported as 9.0. The “A1 pKi” value [3] was 7.0.
For `C[C@@H]1CN(c2c(-c3ccccc3)nc(N)n3c(=O)n(Cc4ccc(F)cn4)nc23)C[C@H](C)O1` [Example 1-14, 5-amino-8-[(cis)-2,6-dimethylmorpholin-4-yl]-2-[(5-fluoro-2-pyridyl)methyl]-7-phenyl-[1,2,4]triazolo[4,3-c]pyrimidin-3-one], the Ki [1] was 9.5 µM, the IC50 (human CB1 receptor) was 7 µM and the “A2A pKi” value [2] was 7.9. For the same compound, the “A1 pKi” value [3] was 5.9.
